Reference: US9695155B2, “Herbicidal substituted pyrimidinyloxy benzene compounds” (E. I. DU PONT DE NEMOURS AND COMPANY, priority 2013, dated 2017)

What was measured:
wheat [1] = assay: Test A preemergence; type: in vivo, Triticum aestivum; details: for Plant response rating, Wheat: 125 g ai/ha, 0 to 100 scale where 0 is no effect and 100 is complete control; for Wheat plant response rating: 0 to 100 scale, 0 no effect, 100 complete control, approx. 10 days
Procedure, shortened: (§1)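 Pre- and postemergence greenhouse screen. Soil: loam + sand. Spray carrier: solvent mixture, non-phytotoxic, with surfactant. Post timing at 1–2 leaves, height 2–10 cm. Readout: visual injury on a 0–100 scale roughly 10 days after application, untreated plants as reference.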

barnyardgrass [2] = assay: Test A postemergence; type: in vivo, Echinochloa crus-galli
Procedure, shortened: as §1

large (Lg) crabgrass [3] = assay: Test A postemergence; type: in vivo, Digitaria sanguinalis
Procedure, shortened: as §1

giant foxtail [4] = assay: Test A preemergence; type: in vivo, Setaria faberii; details: for Plant response rating, Foxtail, Giant: 125 g ai/ha, 0 to 100 scale where 0 is no effect and 100 is complete control; for Foxtail, Giant plant response rating: 0 to 100 scale, 0 no effect, 100 complete control, approx. 10 days
Procedure, shortened: as §1

barnyardgrass [5] = assay: Test A preemergence; type: in vivo, Echinochloa crus-galli; details: for Barnyardgrass plant response rating: 500 g ai/ha, approx. 10 days
Procedure, shortened: as §1

velvetleaf [6] = assay: Test A preemergence; type: in vivo, Abutilon theophrasti; details: for Plant response rating, Velvetleaf: 125 g ai/ha, 0 to 100 scale where 0 is no effect and 100 is complete control; for Velvetleaf plant response rating: 0 to 100 scale, 0 no effect, 100 complete control, approx. 10 days
Procedure, shortened: as §1

rice = assay: Test B flooded paddy test; type: in vivo, Oryza sativa; details: Flood, 250 g ai/ha; 0 to 100 scale where 0 is no effect and 100 is complete control
Procedure, shortened: (§2)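 Plants were grown to the 2-leaf stage, then pots were flooded to 3 cm above the soil and compounds were applied directly into the paddy water. That depth was held throughout, and after 13 to 15 days in the greenhouse injury was rated visually against controls on a 0–100 scale (0 no effect, 100 complete control).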

pigweed [7] = assay: Test A preemergence; type: in vivo, Amaranthus retroflexus; details: for Plant response rating, Pigweed: 125 g ai/ha, 0 to 100 scale where 0 is no effect and 100 is complete control; for Pigweed plant response rating: 0 to 100 scale, 0 no effect, 100 complete control, approx. 10 days
Procedure, shortened: as §1

wheat [8] = assay: Test A postemergence; type: in vivo, Triticum aestivum
Procedure, shortened: as §1

pigweed [9] = assay: Test A postemergence; type: in vivo, Amaranthus retroflexus
Procedure, shortened: as §1

barnyardgrass [10] = assay: Test B flooded paddy test; type: in vivo, Echinochloa crus-galli; details: Flood, 250 g ai/ha; 0 to 100 scale where 0 is no effect and 100 is complete control
Procedure, shortened: as §2

corn [11] = assay: Test A preemergence; type: in vivo, Zea mays; details: for Corn plant response rating: 500 g ai/ha, approx. 10 days
Procedure, shortened: as §1

velvetleaf [12] = assay: Test A postemergence; type: in vivo, Abutilon theophrasti
Procedure, shortened: as §1

giant foxtail [13] = assay: Test A postemergence; type: in vivo, Setaria faberii
Procedure, shortened: as §1

morningglory [14] = assay: Test A preemergence; type: in vivo, Ipomoea spp.; details: for Plant response rating, Morningglory: 125 g ai/ha, 0 to 100 scale where 0 is no effect and 100 is complete control; for Morningglory plant response rating: 0 to 100 scale, 0 no effect, 100 complete control, approx. 10 days
Procedure, shortened: as §1

large (Lg) crabgrass [15] = assay: Test A preemergence; type: in vivo, Digitaria sanguinalis; details: for Crabgrass, Large plant response rating: 500 g ai/ha, approx. 10 days
Procedure, shortened: as §1

Heteranthera limosa = assay: Test B flooded paddy test; type: in vivo; details: Flood, 250 g ai/ha; 0 to 100 scale where 0 is no effect and 100 is complete control
Procedure, shortened: as §2

sedge, umbrella = assay: Test B flooded paddy test; type: in vivo, Cyperus difformis; details: Flood, 250 g ai/ha; 0 to 100 scale where 0 is no effect and 100 is complete control
Procedure, shortened: as §2

corn [16] = assay: Test A postemergence; type: in vivo, Zea mays
Procedure, shortened: as §1

morningglory [17] = assay: Test A postemergence; type: in vivo, Ipomoea spp.
Procedure, shortened: as §1

[18] = 125 g ai/ha, 0 to 100 scale where 0 is no effect and 100 is complete control
[19] = 500 g ai/ha, 0 to 100 scale, 0 no effect, 100 complete control
[20] = 0 to 100 scale, 0 no effect, 100 complete control
[21] = 1000 g ai/ha, 0 to 100 scale, 0 no effect, 100 complete control

| SMILES | Plant response rating, Wheat (wheat [1]) | Wheat plant response rating (wheat [1]; 500 g ai/ha) | Plant response rating, Barnyardgrass (barnyardgrass [2]; [18]) | Plant response rating, Barnyardgrass (barnyardgrass [2]; [19]) | Plant response rating, Crabgrass, Large (large (Lg) crabgrass [3]; [18]) | Plant response rating, Crabgrass, Large (large (Lg) crabgrass [3]; [19]) | Plant response rating, Foxtail, Giant (giant foxtail [4]) | Foxtail, Giant plant response rating (giant foxtail [4]; 500 g ai/ha) | Plant response rating, Barnyardgrass (barnyardgrass [5]; [18]) | Barnyardgrass plant response rating (barnyardgrass [5]; [20]) | Plant response rating, Velvetleaf (velvetleaf [6]) | Velvetleaf plant response rating (velvetleaf [6]; 500 g ai/ha) | Plant response rating, Rice (rice) | Plant response rating, Pigweed (pigweed [7]) | Pigweed plant response rating (pigweed [7]; 500 g ai/ha) | Plant response rating, Wheat (wheat [8]; [18]) | Plant response rating, Wheat (wheat [8]; [19]) | Plant response rating, Barnyardgrass (barnyardgrass [10]) | Plant response rating, Ducksalad (Heteranthera limosa) | Plant response rating, Sedge, Umbrella (sedge, umbrella) | other results |
| --- | --- | --- | --- | --- | --- | --- | --- | --- | --- | --- | --- | --- | --- | --- | --- | --- | --- | --- | --- | --- | --- |
| COc1ccc(Oc2ncc(Cl)cn2)c(-n2cc(Br)cn2)c1 [Compound 42] | 0 | 0 | 0 | 0 | 10 | 50 | 10 | 20 | 0 | 10 | 60 | 60 | 15 | 0 | 20 | 0 | 0 | 0 | 45 | 0 | Plant response rating, Pigweed (pigweed [9]; [18]): 0; Plant response rating, Pigweed (pigweed [9]; [19]): 30; Plant response rating, Corn (corn [11]; [18]): 0; Corn plant response rating (corn [11]; [20]): 0; Plant response rating, Velvetleaf (velvetleaf [12]; [18]): 60; Plant response rating, Velvetleaf (velvetleaf [12]; [19]): 70; Plant response rating, Foxtail, Giant (giant foxtail [13]; [18]): 0; Plant response rating, Foxtail, Giant (giant foxtail [13]; [19]): 30; Plant response rating, Morningglory (morningglory [14]): 0; Morningglory plant response rating (morningglory [14]; 500 g ai/ha): 0; Plant response rating, Crabgrass, Large (large (Lg) crabgrass [15]; [18]): 10; Crabgrass, Large plant response rating (large (Lg) crabgrass [15]; [20]): 30; Plant response rating, Corn (corn [16]; [18]): 0; Plant response rating, Corn (corn [16]; [19]): 0; Plant response rating, Morningglory (morningglory [17]; [18]): 20; Plant response rating, Morningglory (morningglory [17]; [19]): 40 |
| Clc1cnc(Oc2ccccc2-n2cnc(Br)n2)nc1 [Compound 46] | 0 | 0 | 0 | 20 | 0 | 20 | 0 | 80 | 0 | 20 | 0 | 0 | 0 | 20 | 90 | 0 | 0 | 0 | 0 | 0 | Plant response rating, Pigweed (pigweed [9]; [18]): 40; Plant response rating, Pigweed (pigweed [9]; [19]): 80; Plant response rating, Corn (corn [11]; [18]): 0; Corn plant response rating (corn [11]; [20]): 0; Plant response rating, Velvetleaf (velvetleaf [12]; [18]): 0; Plant response rating, Velvetleaf (velvetleaf [12]; [19]): 40; Plant response rating, Foxtail, Giant (giant foxtail [13]; [18]): 0; Plant response rating, Foxtail, Giant (giant foxtail [13]; [19]): 20; Plant response rating, Morningglory (morningglory [14]): 0; Morningglory plant response rating (morningglory [14]; 500 g ai/ha): 0; Plant response rating, Crabgrass, Large (large (Lg) crabgrass [15]; [18]): 20; Crabgrass, Large plant response rating (large (Lg) crabgrass [15]; [20]): 100; Plant response rating, Corn (corn [16]; [18]): 0; Plant response rating, Corn (corn [16]; [19]): 30; Plant response rating, Morningglory (morningglory [17]; [18]): 20; Plant response rating, Morningglory (morningglory [17]; [19]): 50 |
| Fc1ccc(Oc2ncc(Cl)cn2)c(-n2cc(Br)cn2)c1 [Compound 53] |  |  |  |  |  |  |  |  |  |  |  |  | 0 |  |  |  |  | 0 | 75 | 0 | Wheat plant response rating (wheat [1]; 1000 g ai/ha): 0; Plant response rating, Barnyardgrass (barnyardgrass [2]; [21]): 90; Plant response rating, Crabgrass, Large (large (Lg) crabgrass [3]; [21]): 70; Foxtail, Giant plant response rating (giant foxtail [4]; 1000 g ai/ha): 100; Plant response rating, Barnyardgrass (barnyardgrass [5]; [21]): 100; Velvetleaf plant response rating (velvetleaf [6]; 1000 g ai/ha): 100; Pigweed plant response rating (pigweed [7]; 1000 g ai/ha): 100; Plant response rating, Wheat (wheat [8]; [21]): 30; Plant response rating, Pigweed (pigweed [9]; [21]): 100; Plant response rating, Corn (corn [11]; [21]): 10; Plant response rating, Velvetleaf (velvetleaf [12]; [21]): 100; Plant response rating, Foxtail, Giant (giant foxtail [13]; [21]): 80; Morningglory plant response rating (morningglory [14]; 1000 g ai/ha): 60; Plant response rating, Crabgrass, Large (large (Lg) crabgrass [15]; [21]): 100; Plant response rating, Corn (corn [16]; [21]): 30; Plant response rating, Morningglory (morningglory [17]; [21]): 100 |
| N#Cc1cccc(Oc2ncc(I)cn2)c1-n1cc(Br)cn1 [Compound 60] | 0 | 0 | 20 | 50 | 10 | 70 | 20 | 90 | 0 | 70 | 0 | 40 | 0 | 30 | 100 | 0 | 10 | 0 | 0 | 0 | Plant response rating, Pigweed (pigweed [9]; [18]): 50; Plant response rating, Pigweed (pigweed [9]; [19]): 100; Plant response rating, Corn (corn [11]; [18]): 0; Corn plant response rating (corn [11]; [20]): 0; Plant response rating, Velvetleaf (velvetleaf [12]; [18]): 50; Plant response rating, Velvetleaf (velvetleaf [12]; [19]): 100; Plant response rating, Foxtail, Giant (giant foxtail [13]; [18]): 20; Plant response rating, Foxtail, Giant (giant foxtail [13]; [19]): 80; Plant response rating, Morningglory (morningglory [14]): 0; Morningglory plant response rating (morningglory [14]; 500 g ai/ha): 0; Plant response rating, Crabgrass, Large (large (Lg) crabgrass [15]; [18]): 40; Crabgrass, Large plant response rating (large (Lg) crabgrass [15]; [20]): 100; Plant response rating, Corn (corn [16]; [18]): 0; Plant response rating, Corn (corn [16]; [19]): 30; Plant response rating, Morningglory (morningglory [17]; [18]): 10; Plant response rating, Morningglory (morningglory [17]; [19]): 50 |
| O=Cc1cccc(Oc2ncc(Cl)cn2)c1-n1cc(Br)cn1 [Compound 61] | 0 | 0 | 0 | 0 | 0 | 0 | 0 | 0 | 0 | 20 | 0 | 0 | 0 | 0 | 30 | 0 | 0 | 0 | 0 | 0 | Plant response rating, Pigweed (pigweed [9]; [18]): 0; Plant response rating, Pigweed (pigweed [9]; [19]): 0; Plant response rating, Corn (corn [11]; [18]): 0; Corn plant response rating (corn [11]; [20]): 0; Plant response rating, Velvetleaf (velvetleaf [12]; [18]): 20; Plant response rating, Velvetleaf (velvetleaf [12]; [19]): 30; Plant response rating, Foxtail, Giant (giant foxtail [13]; [18]): 0; Plant response rating, Foxtail, Giant (giant foxtail [13]; [19]): 0; Plant response rating, Morningglory (morningglory [14]): 0; Morningglory plant response rating (morningglory [14]; 500 g ai/ha): 0; Plant response rating, Crabgrass, Large (large (Lg) crabgrass [15]; [18]): 0; Crabgrass, Large plant response rating (large (Lg) crabgrass [15]; [20]): 20; Plant response rating, Corn (corn [16]; [18]): 0; Plant response rating, Corn (corn [16]; [19]): 0; Plant response rating, Morningglory (morningglory [17]; [18]): 0; Plant response rating, Morningglory (morningglory [17]; [19]): 0 |
